In patent publication US9096853B2, “Modified siRNA molecules incorporating 5-fluoro-2′-deoxyuridine residues to enhance cytotoxicity” (U.S. Department of Veterans Affairs, priority 2012, dated 2015):
d = 2'-deoxy (DNA); r = 2'-OH (RNA)

Columns and labels:
[1] = test system: human colon cancer RKO cell line; experiment: Clonogenic assay in RKO cells; format: cell-based; details: 6 hr exposure, colonies counted after 8 days, mean ± S.D., at least 3 experiments
Protocol: RKO cells were plated in 6-well plates at a density of 600 cells/well. On the following day, cells were transfected with ssiRNA/LF2000 complexes for 6 hr after which time, the growth medium was replaced. Similarly, FdU was added to wells for 6 hr followed by medium replacement. After 8 days, cell colonies were fixed with Trypan blue solution (75% methanol/25% acetic acid/0.25% trypan blue), washed, and air-dried before counting colonies >50 cells.

[2] = test system: p53, Fas, cleaved PARP, γH2AX, p-ATM; experiment: Immunoblot of DNA damage and apoptosis signaling proteins, time course; format: cell-based, human; details: RKO cells, ssiRNA 10 nM, 0-72 hr
Protocol: FIG. 5 illustrates time-dependent effects of FdU-containing ssiRNAs on protein expression. RKO cells were transfected with various TS6 ssiRNAs (10 nM). After 6 hr, the medium was replaced, and cells were harvested for immunoblot blot analysis at the following times: before39 transfection (pre) and 0, 24, 48, and 72 hr after transfection. Images shown are representative blots from at least 4 different experiments; and
Protein concentrations of cell lysates were determined using the DC Protein Assay (Bio-Rad; Hercules, Calif.). Equal amounts of protein (30 μg) from each cell lysate were resolved on SDS-PAGE using the method of Laemmli (Reference 19) and transferred onto 0.45 μm nitrocellulose membranes (Bio-Rad). Membranes were blocked and incubated overnight with primary antibodies at 4° C. The following antibodies were used in the experiments: anti-TS (Clone 4H4B1; Invitrogen), anti-TS (#5449; Cell Signaling; San Francisco, Calif.), anti-p21 Waf1/Cip1 (#2947; Cell Signaling), anti-p53 (#sc-126; Santa Cruz Biotechnology; Santa Cruz, Calif.), anti-PARP (#9542; Cell Signaling), anti-Fas (#4233; Cell Signaling), anti-phospho-histone H2A.X (Ser139) (#2577; Cell Signaling), anti-histone H2A.X (#7631; Cell Signaling), anti-phospho-ATM (pS1981; EPITOMICS Inc.; Burlingame, Calif.), anti-ATM (#A1106; Sigma), and anti-α-tubulin (EMD Biosciences; San Diego, Calif.). After multiple TBST washes (1×TBS, 0.1% Tween-20), membranes were incubated with corresponding horseradish peroxidase-conjugated secondary antibodies (Bio-Rad) for 1 hr at room temperature. Proteins were detected by the enhanced chemiluminescence method (SuperSignal West Pico substrate; Pierce; Rockford, Ill.). Quantitation of signal intensities was performed by densitometry on a Xerox scanner using NIH IMAGEJ software.

[3] = test system: TS6 siRNA target sequence (TS mRNA nt 1058-1077) targeted by the antisense strand; experiment: Luciferase assay, vector with TS6 target site for the antisense strand; format: cell-based, human; details: RKO cells, ssiRNA 0.1 nM, 24 hr
Protocol: (§1) FIG. 3 illustrates the effect of 3′-end modification on ssiRNA strand selection. RKO cells were transfected with luciferase vectors (including the TS6 target site for either the antisense (open bars) or sense strand (hatched bars)) in combination with ssiRNAs containing different 3′-end overhangs. After 24 hr, cells were harvested and luciferase activity was determined as described in the Materials and Methods section. Firefly/renilla luciferase activity from vector-alone transfection was normalized to 100%. All values represent the mean±S.D. from at least 4 separate experiments performed in duplicate;
(§2) FIGS. 4A-C illustrate the effect of 3′-end dU incorporation on ssiRNA strand selection. RKO cells were transfected with various TS6 ssiRNAs (1 nM) for 6 hr. After an additional 48 hr, cells were harvested for immunoblot (A) and qPCR (B) analysis. (C) Luciferase vectors (containing the siRNA target site for either the sense or antisense strand) were transfected into RKO cells in combination with different ssiRNAs. After 24 hr, cells were harvested and luciferase activity was determined as described in the Materials and Methods section. Luciferase activity from vector-alone transfection was normalized to 100%. All values represent the mean±S.D. from at least 4 separate experiments performed in duplicate;
(§3) A DNA oligonucleotide corresponding to the TS6 siRNA target sequence (TS mRNA nt 1058-1077: 5′-[…]-3′- SEQ ID NO: 23) was annealed to its complimentary antisense sequence and ligated into the pGL3-Promoter plasmid (Promega; Madison, WI) at restriction sites Hind III and Nco I. The luciferase mRNA expressed from this plasmid was targeted by the antisense strand of TS6 siRNA. A second plasmid was constructed with the TS mRNA sequence inserted in the opposite orientation so that it could be targeted by the sense or passenger strand of TS6 siRNA. […] After 24 hr, cells were washed with PBS, lysed in 1×PLG buffer, and firefly and renilla luciferase levels were determined by the Dual-Luciferase™ Reporter Assay system (Promega). […]

[4] = test system: TS mRNA sequence in opposite orientation targeted by the sense (passenger) strand; experiment: Luciferase assay, vector with TS6 target site for the sense strand; format: cell-based, human; details: RKO cells, ssiRNA 0.1 nM, 24 hr
Protocol: as §1, §2, §3

With “TS6-dU/dA: unmodified TS-targeted ssiRNA, 5 dU on 3′-end of sense strand, 5 dA on 3′-end of antisense strand; SEQ ID NO: 3 and 4 (sense GGAUAUUGUCAGUCUUUAGGUUUUU; antisense CCUAAAGACUGACAAUAUCCAAAAA; sense: sugars from the 5' end r20 d5, backbone and T or U not given here; antisense: sugars from the 5' end r20 d5, backbone not given here)” the IC50 [1] was 1.77 nM, the “biomarkers of DNA damage, γH2AX and p-ATM” value [2] was “little to no effect” and the “antisense strand targeting, luciferase (in words)” value [3] was “maintained”. For the same substance, the “sense strand targeting, luciferase (in words)” value [4] was “significantly reduced”.
